In ChEMBL document CHEMBL4622956, “Amide derivatives of Gallic acid: Design, synthesis and evaluation of inhibitory activities against in vitro α-synuclein aggregation” (Bioorg Med Chem, 2020) one finds IC50 data, which are given here for 1 molecule.

Molecules are shown by their SMILES.

In this test the target is Alpha-synuclein (Homo sapiens, UniProt P37840). The test is described as follows: Inhibition of alpha-synuclein (unknown origin) aggregation incubated for 3 days by thioflavin T based fluorescence assay.

Broadly, the IC50 is the concentration at which inhibition is half-maximal. Read a high IC50 as a need for much substance.

Consider `O=C(O)c1cc(O)c(O)c(O)c1` [GALLIC ACID], for which it took 4.43 µM to reach half-maximal inhibition (IC50).
